Test [1] can be described thus: Anxiolytic activity, Geller conflict method (Geller and Seifter). The following applies: po; modified Geller and Seifter conflict method; read-out: Geller Conflict (MED mg/kg po), minimum effective dose at which there was an observed increase in shocks above control. The format is in vivo. The protocol: Screening for anxiolytic activity was carried out by modifications of the conflict method of Geller and Seifter (Psychopharmacologia, (1960), Volume I, p. 482). The values given in Table VI are the minimum effective doses at which there was an observed increase in shocks above control (MED me/kg po).

For another test, the target named is benzodiazepine receptors. The test can be described thus: Affinity for benzodiazepine receptors ([3H] flunitrazepam radioreceptor binding). The following applies: inhibition of specific binding of 0.6 nM [^3 H] flunitrazepam, rat forebrain membrane preparations; read-out: Receptor Binding (IC50 nM). The protocol:
A. Affinity for benzodiazepine receptors
The affinity of the compounds for benzodiazepine receptors was assessed using the radioligand [^3 H] flunitrazepam and modifications of the original radioreceptor binding method of Squares and Braestrup (Nature, Vol. 266 (1977) p. 732). The values given in Table VI are nanomolar concentrations of test compound which inhibited the specific binding of 0.6 nM[^3 H] flunitrazepam to rat forebrain membrain preparations by 50% (IC50 nM).

What is called IC50 is the concentration that gives 50% inhibition.

Take `COc1nc2nc(C(=O)c3ccccc3)cn2c2c1CCCC2` [Example 1, (5-methoxy-6,7,8.9-tetrahydroimidazo[1,2-a]quinazolin-2-yl)phenylmethanone]: the minimal effective dose in test [1] turned out to be 5 mg/kg. The IC50 at benzodiazepine receptors amounted to 61 nM.

`COc1cc(C)n2cc(C(=O)c3ccccc3)nc2n1` [Example 3, (7-Methoxy-5-methylimidazol[1,2-a]pyrimidin-2-yl)-phenyl methanone]: the minimal effective dose in test [1] worked out at 5 mg/kg. Moreover, the IC50 on benzodiazepine receptors was 800 nM.

On to `COc1nc2nc(C(=O)c3ccccc3)cn2c2c1CCC2` [Example 4, (5-Methoxycyclopenta[e]imidazol[1,2-a]pyrimidin-2-yl)-phenylmethanone], for which, in test [1], the minimal effective dose was found to be 20 mg/kg. For the same molecule, on benzodiazepine receptors, the IC50 came out at 200 nM.

`CSc1nc2nc(C(=O)c3ccccc3)cn2c2c1CCC2` [Example 6, [5-(Methylthio)cyclopenta[e]imidazo[1,2-a]pyrimidin-2-yl]phenylmethanone]: the minimal effective dose in test [1] came to 2 mg/kg. Moreover, the IC50 on benzodiazepine receptors came out at 35 nM.

As for `COc1nc2nc(C(=O)c3ccccc3)cn2c(C)c1C` [Example 7, (7-Methoxy-5,6-dimethylimidazo[1,2-a]pyrimidin-2-yl)phenylmethanone], in test [1], the minimal effective dose came out at 50 mg/kg. For the same molecule, the IC50 on benzodiazepine receptors came out at 235 nM.

For `COc1nc2nc(C(=O)c3ccccc3)cn2c2c1CCCCC2` [Example 8], the minimal effective dose in test [1] worked out at 10 mg/kg. Further, at benzodiazepine receptors, the IC50 came out at 125 nM.

As for `COc1nc2nc(C(=O)c3ccccc3)cn2c(C)c1Cc1ccccc1` [Example 9, (6-Benzyl-7-methoxy-5-methylimidazo[1,2-a]pyrimidin-2-yl)phenylmethanone], in test [1], the minimal effective dose was 50 mg/kg. At benzodiazepine receptors, the IC50 was 45 nM.

For the molecule `CCOc1nc2nc(C(=O)c3ccccc3)cn2c2c1CCCCC2` [Example 10], the minimal effective dose in test [1] turned out to be 5 mg/kg. For the same molecule, the IC50 at benzodiazepine receptors amounted to 4000 nM.

Take `COc1nc2nc(C(=O)c3ccccc3)cn2c(C)c1C(C)C` [Example 11, (7-Methoxy-5-methyl-6-(1-methylethyl)imidazo[1,2-a]pyrimidin-2-yl)phenylmethanone]: the minimal effective dose in test [1] amounted to 2 mg/kg. Further, the IC50 on benzodiazepine receptors came out at 37 nM.

On to `CSc1nc2nc(C(=O)c3ccccc3)cn2c2c1CCCC2` [Example 12, [5-(Methylthio)-6,7,8,9-tetrahydroimidazo[1,2-a]quinazolin-2-yl]phenylmethanone], for which, in test [1], the minimal effective dose was found to be 10 mg/kg. Besides, at benzodiazepine receptors, the IC50 was found to be 8.5 nM.

For `CCSc1nc2nc(C(=O)c3ccccc3)cn2c2c1CCC2` [Example 13, [5-(Ethylthio)cyclopenta[e]imidazo[1,2-a]pyrimidin-2-yl]phenylmethanone], the minimal effective dose in test [1] was found to be 50 mg/kg. In addition, the IC50 at benzodiazepine receptors is 1850 nM.

Turning to `CCCc1cc(OC)nc2nc(C(=O)c3ccccc3)cn12` [Example 14, (7-Methoxy-5-propylimidazo[1,2-a]pyrimidin-2-yl)phenylmethanone], the minimal effective dose in test [1] was 1 mg/kg. Further, on benzodiazepine receptors, the IC50 was determined as 535 nM.

With `CCc1cc(OC)nc2nc(C(=O)c3ccccc3)cn12` [Example 15, (5-Ethyl-7-methoxyimidazo[1,2-a]pyrimidin-2-yl)phenylmethanone], the minimal effective dose in test [1] is 2 mg/kg. For the same molecule, the IC50 on benzodiazepine receptors came out at 295 nM.

`CCc1c(OC)nc2nc(C(=O)c3ccccc3)cn2c1C` [Example 16, (6-Ethyl-7-methoxy-5-methylimidazo[1,2-a]pyrimidin-2-yl)phenylmethanone]: in test [1], the minimal effective dose is 2 mg/kg. Besides, on benzodiazepine receptors, the IC50 was 56 nM.

For the molecule `COc1nc2nc(C(=O)c3ccccc3)cn2c2c1CCC(C)C2` (stereo not shown) [Example 17, (5-Methoxy-8-methyl-6,7,8,9-tetrahydroimidazo[1,2-a]quinazolin-2-yl]phenylmethanone], the minimal effective dose in test [1] was determined as 10 mg/kg. Also, on benzodiazepine receptors, the IC50 amounted to 135 nM.

Turning to `CSc1nc2nc(C(=O)c3ccccc3)cn2c2c1CCC(C)C2` (stereo not shown) [Example 18, [8-Methyl-5-(methylthio)-6,7,8,9-tetrahydroimidazo[1,2-a]quinzolin-2-yl]phenylmethanone], the minimal effective dose in test [1] came out at 50 mg/kg. Moreover, the IC50 at benzodiazepine receptors amounted to 76 nM.

Take `CCCCCCc1c(OC)nc2nc(C(=O)c3ccccc3)cn2c1C` [Example 19, (6-n-Hexyl-7-methoxy-5-methylimidazo[1,2-a]pyrimidin-2-yl)phenylmethanone]: the minimal effective dose in test [1] came out at 20 mg/kg. Also, the IC50 at benzodiazepine receptors turned out to be 180 nM.

Regarding `C=CCc1c(OC)nc2nc(C(=O)c3ccccc3)cn2c1C` [Example 20, (6-Allyl-7-methoxy-5-methylimidazo[1,2-a]pyrimidin-2-yl)phenylmethanone], in test [1], the minimal effective dose was determined as 4 mg/kg. Also, the IC50 on benzodiazepine receptors came out at 45 nM.

`CSc1cc(C)n2cc(C(=O)c3ccccc3)nc2n1` [Example 21, [5-Methyl-7-(methylthio)imidazo[1,2-a]pyrimidin-2-yl]phenylmethanone]: the minimal effective dose in test [1] worked out at 50 mg/kg. The IC50 on benzodiazepine receptors was 190 nM.

Take `CCCc1cc(SC)nc2nc(C(=O)c3ccccc3)cn12` [Example 22, [7-(Methylthio)-5-propylimidazo[1,2-a]pyrimidin-2-yl]phenylmethanone]: in test [1], the minimal effective dose came to 50 mg/kg. Besides, on benzodiazepine receptors, the IC50 came out at 89 nM.

Regarding `COc1nc2nc(C(=O)c3ccccc3)cn2c(C)c1CC1CC1` [Example 23, [6-Cyclopropylmethyl-7-methoxy-5-methylimidazo[1,2-a]pyrimidin-2-yl]phenylmethanone], the minimal effective dose in test [1] was found to be 10 mg/kg. Also, the IC50 at benzodiazepine receptors worked out at 30 nM.

For the molecule `COc1nc2nc(C(=O)c3ccccc3)cn2c(C)c1CC1CCCCC1` [Example 24, [6-Cyclohexylmethyl-7-methoxy-5-methylimidazo[1,2-a]pyrimidin-2-yl]phenylmethanone], the minimal effective dose in test [1] came out at 50 mg/kg. For the same molecule, on benzodiazepine receptors, the IC50 came to 250 nM.

On to `CCOc1nc2nc(C(=O)c3ccccc3)cn2c(C)c1CC` [Example 25, [7-Ethoxy-6-ethyl-5-methylimidazo[1,2-a]pyrimidin-2-yl]phenylmethanone], for which the minimal effective dose in test [1] was found to be 50 mg/kg. The IC50 at benzodiazepine receptors amounted to 1900 nM.

As to `CCCc1c(C)c(OC)nc2nc(C(=O)c3ccccc3)cn12` [Example 26, [7-Methoxy-6-methyl-5-propylimidazo[1,2-a]pyrimidin-2-yl]phenylmethanone], the minimal effective dose in test [1] worked out at 20 mg/kg. In addition, on benzodiazepine receptors, the IC50 came out at 740 nM.

As to `CCCc1c(CC)c(OC)nc2nc(C(=O)c3ccccc3)cn12` [Example 27, [6-Ethyl-7-methoxy-5-n-propylimidazo[1,2-a]pyrimidin-2-yl]phenylmethanone], the minimal effective dose in test [1] came to 50 mg/kg. Also, the 50% inhibitory concentration (IC50) on benzodiazepine receptors was found to be 470 nM.

For `COc1ccn2cc(C(=O)c3ccccc3)nc2n1` [Example 28, [7-Methoxyimidazo[1,2-a]pyrimidin-2-yl]phenylmethanone], the minimal effective dose in test [1] amounted to 50 mg/kg. In addition, the IC50 on benzodiazepine receptors was 8500 nM.

With `CCc1c(C)c(OC)nc2nc(C(=O)c3ccccc3)cn12` [Example 29, [5-Ethyl-7-methoxy-6-methylimidazo[1,2-a]pyrimidin-2-yl]phenylmethanone], the minimal effective dose in test [1] was 20 mg/kg. At benzodiazepine receptors, the concentration for half-maximal inhibition (IC50) worked out at 1000 nM.

On to `CCCCc1c(OC)nc2nc(C(=O)c3ccccc3)cn2c1C` [Example 30, [6-n-Butyl-7-methoxy-5-methylimidazo[1,2-]pyrimidin-2-yl]phenylmethanone], for which the minimal effective dose in test [1] was 2 mg/kg. The IC50 at benzodiazepine receptors was determined as 42 nM.

Consider `CCc1c(OC)nc2nc(C(=O)c3ccccc3)cn2c1CC` [Example 31, [5,6-Diethyl-7-methoxyimidazo[1,2-a]pyrimidin-2-yl]phenylmethanone], for which the minimal effective dose in test [1] worked out at 2 mg/kg. Also, the IC50 at benzodiazepine receptors stood at 107 nM.

With `CCCc1c(OC)nc2nc(C(=O)c3ccccc3)cn2c1C` [Example 32, [7-Methoxy-5-methyl-6-n-propylimidazo[1,2-a]pyrimidin-2-yl]phenylmethanone], the minimal effective dose in test [1] turned out to be 5 mg/kg. The IC50 at benzodiazepine receptors came out at 85 nM.

For `CCc1c(SC)nc2nc(C(=O)c3ccccc3)cn2c1CC` [Example 52, [5,6-Diethyl-7-(methylthio)imidazo[1,2-a]pyrimidin-2-yl]phenylmethanone], on benzodiazepine receptors, the IC50 came to 12 nM.

For `CCCc1c(SC)nc2nc(C(=O)c3ccccc3)cn2c1CC` [Example 53, [5-Ethyl-7-(methylthio)-6-n-propylimidazo[1,2-a]pyrimidin-2-yl]phenylmethanone], the IC50 on benzodiazepine receptors was found to be 47 nM.

In the case of `CCc1c(OC)nc2nc(C(=O)c3cccs3)cn2c1C` [Example 60, 6-ethyl 7-methoxy 5-methylimidazo/1,2-a/pyrimidin-2-yl(2-thienyl)methanone], the minimal effective dose in test [1] is 50 mg/kg.

For the molecule `CCc1c(OC)nc2nc(C(=O)c3ccccn3)cn2c1C` [Example 61, (6-ethyl 7-methoxy 5-methylimidazo/1,2-a/pyrimidin-2-yl)(2-pyridinyl)methanone], the minimal effective dose in test [1] worked out at 50 mg/kg.

`CCc1c(OC)nc2nc(C(=O)c3ccc(F)cc3)cn2c1C` [Example 62, (6-ethyl 7-methoxy 5-methylimidazo/1,2-a/pyrimidin-2-yl)(4-fluorophenyl)methanone]: in test [1], the minimal effective dose stood at 10 mg/kg.

For the molecule `CCc1c(OC)nc2nc(C(=O)c3cccc(C(F)(F)F)c3)cn2c1C` [Example 63, (6-ethyl 7-methoxy 5-methylimidazo/1,2-a/pyrimidin-2-yl)/(3-trifluoromethyl)phenyl/methanone], the minimal effective dose in test [1] stood at 50 mg/kg.

As to `CCc1c(OC)nc2nc(C(C)=O)cn2c1C` [Example 64, 1-(6-ethyl 7-methoxy 5-methylimidazo/1,2-a/pyrimidin-2-yl)ethanone], in test [1], the minimal effective dose was determined as 50 mg/kg.

Values taken from US4588720A, “Imidazo[1,2-a]pyrimidines” (Roussel Uclaf, priority 1982, dated 1986).
